According to PubChem BioAssay AID256 (DTP/NCI, 2004):
Several values for one entry are separate records, joined by “and”; a condition that tells them apart may be missing. Equal values may be shown once. Toxic doses and inconclusive results are not listed.

Test system: CD2F1 mice, L1210 leukemia ip, survival T/C
Test: NCI In Vivo Anticancer Drug Screen. Data for tumor model L1210 Leukemia (intraperitoneal) in CD2F1 (CDF1) mice
Conditions: higher = longer survival
Summary of the method: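 Ratio T/C, where T is the treated-group value and C the vehicle-dosed control value, from mice implanted with a transplantable tumor.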

[1] = endpoint: mean survival time, dose: 100.0 mg/kg/injection, schedule: Q01DX009 (ip), vehicle: saline with Tween-80
[2] = endpoint: mean survival time, dose: 100.0 mg/kg/injection, schedule: Q04DX003 (ip), vehicle: saline with Tween-80
[3] = endpoint: mean survival time, dose: 200.0 mg/kg/injection, schedule: Q01DX009 (ip), vehicle: saline with Tween-80
[4] = endpoint: mean survival time, dose: 200.0 mg/kg/injection, schedule: Q04DX003 (ip), vehicle: saline with Tween-80
[5] = endpoint: mean survival time, dose: 400.0 mg/kg/injection, schedule: Q04DX003 (ip), vehicle: saline with Tween-80
[6] = endpoint: mean survival time, dose: 100.0 mg/kg/injection, schedule: Q04DX003 (ip), vehicle: saline
[7] = endpoint: mean survival time, dose: 200.0 mg/kg/injection, schedule: Q04DX003 (ip), vehicle: saline
[8] = endpoint: mean survival time, dose: 100.0 mg/kg/injection, schedule: Q04DX002 (ip), vehicle: saline with Tween-80
[9] = endpoint: mean survival time, dose: 200.0 mg/kg/injection, schedule: Q04DX002 (ip), vehicle: saline with Tween-80
[10] = endpoint: mean survival time, dose: 400.0 mg/kg/injection, schedule: Q04DX002 (ip), vehicle: saline with Tween-80
[11] = endpoint: mean survival time, dose: 400.0 mg/kg/injection, schedule: Q01DX009 (ip), vehicle: saline with Tween-80
[12] = endpoint: mean survival time, dose: 75.0 mg/kg/injection, schedule: Q01DX001 (ip), vehicle: saline

SMILES: CC1(O)CS(=O)(=O)CC1O (stereo not drawn)
- T/C (endpoint: mean survival time, dose: 100.0 mg/kg/injection, schedule: Q01DX001 (ip), vehicle: saline): 105 % of control
- T/C (endpoint: mean survival time, dose: 200.0 mg/kg/injection, schedule: Q01DX001 (ip), vehicle: saline): 103 % of control
- T/C (endpoint: mean survival time, dose: 400.0 mg/kg/injection, schedule: Q01DX001 (ip), vehicle: saline): 101 % of control

SMILES: COc1ccc(OC)c(/C=C(\C#N)c2ccc([N+](=O)[O-])cc2)c1
- T/C (endpoint: mean survival time, dose: 16.5 mg/kg/injection, schedule: Q01DX009 (ip), vehicle: saline with Tween-80): 87 % of control
- T/C (endpoint: mean survival time, dose: 25.0 mg/kg/injection, schedule: Q01DX009 (ip), vehicle: saline with Tween-80): 87 % of control
- T/C [1]: 90 % of control
- T/C [2]: 91 % of control
- T/C [3]: 86 % of control
- T/C [4]: 101 % of control

SMILES: C[NH-].C[NH-].[Cl][Pt+2][Cl]
- T/C (endpoint: mean survival time, dose: 2.5 mg/kg/injection, schedule: Q04DX003 (ip), vehicle: water): 91 % of control
- T/C (endpoint: mean survival time, dose: 5.0 mg/kg/injection, schedule: Q04DX003 (ip), vehicle: water): 120 % of control
- T/C (endpoint: mean survival time, dose: 10.0 mg/kg/injection, schedule: Q04DX003 (ip), vehicle: water): 92 % of control

SMILES: CC(Cc1ccccc1)NC1=NCCO1 (stereo not drawn)
- T/C (endpoint: mean survival time, dose: 50.0 mg/kg/injection, schedule: Q01DX009 (ip), vehicle: saline with Tween-80): 96 % of control
- T/C [1]: 104 % of control
- T/C [2]: 104 % of control and 98 % of control and 89 % of control
- T/C [3]: 93 % of control
- T/C [4]: 91 % of control and 87 % of control
- T/C [5]: 86 % of control

SMILES: Cc1ccc(O)c(/C=N/NC(N)=S)n1
- T/C (endpoint: mean survival time, dose: 12.5 mg/kg/injection, schedule: Q03HX024 (ip), vehicle: saline): 103 % of control
- T/C (endpoint: mean survival time, dose: 25.0 mg/kg/injection, schedule: Q03HX024 (ip), vehicle: saline): 102 % of control
- T/C (endpoint: mean survival time, dose: 50.0 mg/kg/injection, schedule: Q03HX024 (ip), vehicle: saline): 103 % of control

SMILES: CCOc1cccc(Cc2cn(Cc3ccc(NC(=O)c4cccc(S(=O)(=O)F)c4)cc3)c(=O)[nH]c2=O)c1
- T/C (endpoint: mean survival time, dose: 75.0 mg/kg/injection, schedule: Q01DX001 (ip), vehicle: saline with Tween-80): 94 % of control
- T/C (endpoint: mean survival time, dose: 150.0 mg/kg/injection, schedule: Q01DX001 (ip), vehicle: saline with Tween-80): 89 % of control
- T/C (endpoint: mean survival time, dose: 300.0 mg/kg/injection, schedule: Q01DX001 (ip), vehicle: saline with Tween-80): 94 % of control

SMILES: CC1=CCCC1
- T/C [6]: 98 % of control
- T/C [7]: 101 % of control
- T/C (endpoint: mean survival time, dose: 400.0 mg/kg/injection, schedule: Q04DX003 (ip), vehicle: saline): 95 % of control

SMILES: CCC(=O)OCc1cc2ccccc2c(-c2c(O)c(CN3CCOCC3)cc3ccccc23)c1O
- T/C [8]: 95 % of control
- T/C [9]: 91 % of control
- T/C [10]: 91 % of control

SMILES: Cc1ccc(NC(=O)/C=C/C(=O)O)cc1
- T/C [1]: 105 % of control
- T/C [3]: 107 % of control
- T/C [11]: 103 % of control

SMILES: COP1(=S)OCC2OC(n3cc(C)c(=O)[nH]c3=O)CC2O1 (stereo not drawn)
- T/C (endpoint: mean survival time, dose: 12.5 mg/kg/injection, schedule: Q01DX005 (ip), vehicle: distilled water + Tween-80): 101 % of control
- T/C (endpoint: mean survival time, dose: 25.0 mg/kg/injection, schedule: Q01DX005 (ip), vehicle: distilled water + Tween-80): 102 % of control
- T/C (endpoint: mean survival time, dose: 50.0 mg/kg/injection, schedule: Q01DX005 (ip), vehicle: distilled water + Tween-80): 102 % of control
- T/C (endpoint: mean survival time, dose: 100.0 mg/kg/injection, schedule: Q01DX005 (ip), vehicle: distilled water + Tween-80): 102 % of control
- T/C (endpoint: mean survival time, dose: 200.0 mg/kg/injection, schedule: Q01DX005 (ip), vehicle: distilled water + Tween-80): 98 % of control

SMILES: CNCCc1ccc2cc(OC)c(OC)cc2c1
- T/C (endpoint: mean survival time, dose: 25.0 mg/kg/injection, schedule: Q01DX009 (ip), vehicle: saline sonified): 104 % of control
- T/C (endpoint: mean survival time, dose: 50.0 mg/kg/injection, schedule: Q01DX009 (ip), vehicle: saline sonified): 104 % of control
- T/C (endpoint: mean survival time, dose: 100.0 mg/kg/injection, schedule: Q01DX009 (ip), vehicle: saline sonified): 104 % of control

SMILES: NCCN1CCc2ccccc2C1
- T/C (endpoint: mean survival time, dose: 6.25 mg/kg/injection, schedule: Q04DX003 (ip), vehicle: saline): 101 % of control
- T/C (endpoint: mean survival time, dose: 12.5 mg/kg/injection, schedule: Q04DX003 (ip), vehicle: saline): 106 % of control
- T/C (endpoint: mean survival time, dose: 25.0 mg/kg/injection, schedule: Q04DX003 (ip), vehicle: saline): 101 % of control

SMILES: CN=C(N)N/N=C(\c1ccccc1)c1ccc(Br)cc1
- T/C (endpoint: median survival time, dose: 3.12 mg/kg/injection, schedule: Q01DX009 (ip), vehicle: saline): 100 % of control
- T/C (endpoint: median survival time, dose: 6.25 mg/kg/injection, schedule: Q01DX009 (ip), vehicle: saline): 106 % of control
- T/C (endpoint: median survival time, dose: 12.5 mg/kg/injection, schedule: Q01DX009 (ip), vehicle: saline): 107 % of control
- T/C (endpoint: median survival time, dose: 25.0 mg/kg/injection, schedule: Q01DX009 (ip), vehicle: saline): 121 % of control

SMILES: Cc1cc(N=Nc2ccc(S(=O)(=O)[O-])cc2)cc(C(=O)[O-])c1[O-].NC1CCCCC1N.[Na+].[Pt+4]
- T/C (endpoint: median survival time, dose: 3.12 mg/kg/injection, schedule: Q04DX003 (ip), vehicle: saline with Tween-80): 180 % of control and 287 % of control
- T/C (endpoint: median survival time, dose: 6.25 mg/kg/injection, schedule: Q04DX003 (ip), vehicle: saline with Tween-80): 265 % of control and 344 % of control
- T/C (endpoint: median survival time, dose: 12.5 mg/kg/injection, schedule: Q04DX003 (ip), vehicle: saline with Tween-80): 244 % of control and 310 % of control
- T/C (endpoint: median survival time, dose: 25.0 mg/kg/injection, schedule: Q04DX003 (ip), vehicle: saline with Tween-80): 122 % of control

SMILES: CCOC(=O)c1c[nH]c2ccc3c(nc(C)n3C)c2c1=O
- T/C (endpoint: median survival time, dose: 25.0 mg/kg/injection, schedule: Q01DX005 (ip), vehicle: Klucel (hydroxypropylcellulose) (HPC)): 98 % of control
- T/C (endpoint: median survival time, dose: 50.0 mg/kg/injection, schedule: Q01DX005 (ip), vehicle: Klucel (hydroxypropylcellulose) (HPC)): 100 % of control
- T/C (endpoint: median survival time, dose: 100.0 mg/kg/injection, schedule: Q01DX005 (ip), vehicle: Klucel (hydroxypropylcellulose) (HPC)): 108 % of control
- T/C (endpoint: median survival time, dose: 200.0 mg/kg/injection, schedule: Q01DX005 (ip), vehicle: Klucel (hydroxypropylcellulose) (HPC)): 112 % of control

SMILES: CN1CCCC(OC(=O)C(c2ccccc2)C2(O)CCCC2)C1 (stereo not drawn)
- T/C [12]: 98 % of control

SMILES: Cc1cc(NC(=O)NC/C(Cl)=C/Cl)c2ccccc2n1
- T/C (endpoint: mean survival time, dose: 100.0 mg/kg/injection, schedule: Q01DX001 (ip), vehicle: saline with Tween-80): 93 % of control
- T/C (endpoint: mean survival time, dose: 200.0 mg/kg/injection, schedule: Q01DX001 (ip), vehicle: saline with Tween-80): 93 % of control
- T/C (endpoint: mean survival time, dose: 400.0 mg/kg/injection, schedule: Q01DX001 (ip), vehicle: saline with Tween-80): 98 % of control

SMILES: COc1cccc2c1C(=O)c1c(O)c3c(c(O)c1C2=O)CC(O)(C(=O)CO)CC3OC1CC(N)C(O)C(C)O1 (stereo not drawn)
- T/C (endpoint: mean survival time, dose: 0.31 mg/kg/injection, schedule: Q04DX003 (ip), vehicle: saline): 120 % of control
- T/C (endpoint: mean survival time, dose: 0.62 mg/kg/injection, schedule: Q04DX003 (ip), vehicle: saline): 120 % of control
- T/C (endpoint: mean survival time, dose: 3.13 mg/kg/injection, schedule: Q01DX009 (ip), vehicle: water): 117 % of control
- T/C (endpoint: mean survival time, dose: 6.25 mg/kg/injection, schedule: Q01DX009 (ip), vehicle: water): 123 % of control
- T/C (endpoint: mean survival time, dose: 12.5 mg/kg/injection, schedule: Q01DX009 (ip), vehicle: water): 202 % of control
- T/C (endpoint: mean survival time, dose: 20.0 mg/kg/injection, schedule: Q04DX003 (ip), vehicle: saline): 152 % of control and 155 % of control
- T/C (endpoint: mean survival time, dose: 25.0 mg/kg/injection, schedule: Q01DX009 (ip), vehicle: water): 151 % of control
- T/C (endpoint: mean survival time, dose: 36.0 mg/kg/injection, schedule: Q01DX009 (ip), vehicle: water): 150 % of control
- T/C (endpoint: mean survival time, dose: 40.0 mg/kg/injection, schedule: Q04DX003 (ip), vehicle: saline): 113 % of control
- T/C (endpoint: mean survival time, dose: 80.0 mg/kg/injection, schedule: Q04DX003 (ip), vehicle: saline): 89 % of control

SMILES: CCC(=O)NC(=O)C(=O)NC(=O)CC
- T/C (endpoint: mean survival time, dose: 25.0 mg/kg/injection, schedule: Q04DX002 (ip), vehicle: saline with Tween-80): 102 % of control
- T/C (endpoint: mean survival time, dose: 50.0 mg/kg/injection, schedule: Q04DX002 (ip), vehicle: saline with Tween-80): 95 % of control
- T/C [8]: 91 % of control
- T/C [9]: 109 % of control

SMILES: O=[N+]([O-])c1cc(Br)ccc1P(=O)(O)O
- T/C (endpoint: mean survival time, dose: 50.0 mg/kg/injection, schedule: Q04DX003 (ip), vehicle: saline): 95 % of control
- T/C [6]: 96 % of control
- T/C [7]: 93 % of control

SMILES: OC1CCCCCCCCC1Cl (stereo not drawn)
- T/C [1]: 88 % of control
- T/C [2]: 94 % of control
- T/C [4]: 93 % of control
- T/C [5]: 96 % of control

SMILES: O=C(N/C=C\NC(=O)Nc1cccc(Cl)c1)Nc1cccc(Cl)c1
- T/C [8]: 90 % of control
- T/C [9]: 90 % of control
- T/C [10]: 98 % of control

SMILES: CCN(CC)N=Nc1ccccc1
- T/C [12]: 114 % of control

SMILES: Cc1ccc(C(=O)c2cnc(C)n2Cc2ccccc2)cc1
- T/C [1]: 92 % of control
- T/C [3]: 92 % of control
- T/C [11]: 97 % of control
